Reference: the NIST ThermoML archive (doi:10.1021/je4007019)

Assay: molar heat capacity at constant pressure; xn = mol fraction of the nth substance listed
Conditions: Liquid, Large sample (1 g) DSC

CCCC [butane] + C
molar heat capacity at constant pressure [J/K/mol]
Conditions	118.15 K	128.15 K	138.15 K	148.15 K	158.15 K	168.15 K	178.15 K
5050 kPa, x2 = 0.95	–	–	–	62.44	64.49	67.9	73.38
5150 kPa, x2 = 0.6	76.47	76.37	77.25	77.85	78.21	78.34	–
5150 kPa, x2 = 0.88	61.84	62.6	63.49	64.92	66.55	68.32	–

C [methane] + CCC
molar heat capacity at constant pressure [J/K/mol]
Conditions	108.15 K	118.15 K	128.15 K	143.15 K	153.15 K	163.15 K
4700 kPa, x1 = 0.81	59.46	59.69	60.46	61.47	62.96	63.63
5200 kPa, x1 = 0.82	59.21	59.52	60.05	61.36	62.9	63.97
6000 kPa, x1 = 0.81	57.53	58.6	59.05	60.8	62.56	63.41
